pEC50: −log10 of the molar value. Like-named read-outs stand apart in the source and are kept apart here.
Columns and labels:
[1] = biological target: T1, MsEcR (GAL4-EcR DEF with VP16-RXR-USP chimera) (Manduca sexta, UniProt P49883); experiment: Two-hybrid gene switch assay, luciferase reporter, MsEcR, mouse NIH3T3 cells
T1 sequence (P49883 1-556): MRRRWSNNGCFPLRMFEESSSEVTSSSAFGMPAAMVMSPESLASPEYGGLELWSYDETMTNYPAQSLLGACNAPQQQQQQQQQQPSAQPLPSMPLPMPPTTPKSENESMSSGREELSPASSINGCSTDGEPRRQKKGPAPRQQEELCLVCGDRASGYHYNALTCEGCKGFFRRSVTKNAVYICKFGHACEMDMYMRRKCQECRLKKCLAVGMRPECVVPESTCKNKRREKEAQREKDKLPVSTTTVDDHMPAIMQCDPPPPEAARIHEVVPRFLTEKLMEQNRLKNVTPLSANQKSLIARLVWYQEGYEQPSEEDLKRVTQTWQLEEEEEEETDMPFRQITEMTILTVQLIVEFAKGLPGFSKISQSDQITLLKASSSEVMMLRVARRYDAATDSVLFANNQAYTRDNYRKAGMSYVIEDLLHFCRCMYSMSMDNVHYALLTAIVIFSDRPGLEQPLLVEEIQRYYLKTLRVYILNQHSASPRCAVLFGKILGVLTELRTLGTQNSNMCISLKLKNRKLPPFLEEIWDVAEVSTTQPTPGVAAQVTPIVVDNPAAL
T1 sequence (P28702 1-533 partner): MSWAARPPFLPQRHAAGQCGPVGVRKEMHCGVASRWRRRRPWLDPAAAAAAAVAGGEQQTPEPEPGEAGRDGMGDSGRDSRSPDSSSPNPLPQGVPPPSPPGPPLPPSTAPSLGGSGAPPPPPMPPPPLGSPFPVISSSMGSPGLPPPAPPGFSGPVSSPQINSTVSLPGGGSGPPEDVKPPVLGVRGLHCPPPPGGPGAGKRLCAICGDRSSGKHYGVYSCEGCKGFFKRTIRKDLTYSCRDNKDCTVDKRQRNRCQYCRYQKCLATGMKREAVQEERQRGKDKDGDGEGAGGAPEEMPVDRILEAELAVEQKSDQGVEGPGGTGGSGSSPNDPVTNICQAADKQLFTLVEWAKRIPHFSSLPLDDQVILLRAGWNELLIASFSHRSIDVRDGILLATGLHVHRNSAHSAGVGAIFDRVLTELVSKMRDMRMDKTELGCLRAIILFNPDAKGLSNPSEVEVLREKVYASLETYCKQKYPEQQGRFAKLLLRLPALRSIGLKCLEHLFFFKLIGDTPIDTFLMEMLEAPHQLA

[2] = biological target: BmEcR (GAL4-EcR DEF with VP16-RXR-USP chimera) (Bombyx mori, UniProt P49881); experiment: Two-hybrid gene switch assay, luciferase reporter, BmEcR, mouse NIH3T3 cells; format: cell-based
BmEcR (GAL4-EcR DEF with VP16-RXR-USP chimera), sequence (P49881 other isoform, or with tags, fused parts or gaps, change not shown): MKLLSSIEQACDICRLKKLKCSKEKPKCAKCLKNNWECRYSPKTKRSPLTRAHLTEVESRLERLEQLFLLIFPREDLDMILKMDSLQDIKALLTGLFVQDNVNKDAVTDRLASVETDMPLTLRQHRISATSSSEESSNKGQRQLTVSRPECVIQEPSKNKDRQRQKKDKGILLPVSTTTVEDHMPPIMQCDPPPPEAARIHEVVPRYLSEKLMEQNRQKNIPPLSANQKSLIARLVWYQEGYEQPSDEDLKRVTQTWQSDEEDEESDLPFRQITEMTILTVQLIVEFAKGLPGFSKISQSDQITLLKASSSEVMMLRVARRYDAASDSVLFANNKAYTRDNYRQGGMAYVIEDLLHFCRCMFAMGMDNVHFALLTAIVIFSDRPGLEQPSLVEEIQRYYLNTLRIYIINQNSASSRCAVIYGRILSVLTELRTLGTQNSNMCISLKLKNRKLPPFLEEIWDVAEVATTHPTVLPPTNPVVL

[3] = biological target: T2, AmaEcR (GAL4-EcR DEF with VP16-RXR-USP chimera) (Amblyomma americanum, UniProt O44338); experiment: Two-hybrid gene switch assay, luciferase reporter, AmaEcR, mouse NIH3T3 cells
T2 sequence (O44338 255-570): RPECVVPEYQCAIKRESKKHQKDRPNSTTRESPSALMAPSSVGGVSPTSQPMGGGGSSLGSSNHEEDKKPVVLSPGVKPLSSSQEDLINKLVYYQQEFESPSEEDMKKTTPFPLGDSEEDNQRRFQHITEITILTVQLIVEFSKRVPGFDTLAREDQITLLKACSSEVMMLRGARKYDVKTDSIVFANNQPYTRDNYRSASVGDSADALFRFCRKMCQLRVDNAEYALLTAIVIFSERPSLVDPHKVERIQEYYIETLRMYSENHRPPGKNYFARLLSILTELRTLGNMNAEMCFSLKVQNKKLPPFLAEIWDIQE
T2 sequence (P28702 1-533 partner): T1 sequence (P28702 1-533 partner)

[4] = EC50, FIG. 13A/13B, GAL4-EcR(DEF) with VP16-RXR-USP chimera
[5] = EC50, FIG. 14A/14B, GAL4-EcR(DEF) with VP16-RXR-USP chimera
[6] = EC50, FIG. 13A/13B, BmEcR, GAL4-EcR(DEF) with VP16-RXR-USP chimera
[7] = EC50, FIG. 15, GAL4-EcR (DEF) / VP16-RXR-USP chimera
[8] = EC50, FIG. 15, BmEcR, GAL4-EcR (DEF) / VP16-RXR-USP chimera
[9] = EC50, FIG. 16, GAL4-EcR (DEF) / VP16-RXR-USP chimera

Row | Compound | pEC50 [1, 4] | pEC50 [2] | pEC50 [3, 5] | pEC50 ([2]; read-out: EC50) | pEC50 [2, 6] | pEC50 [1, 7] | pEC50 [2, 8] | pEC50 [3, 9]
1 | CC(C)(O)CC[C@@H](OC(=O)c1ccc[nH]1)[C@](C)(O)[C@H]1CC[C@@]2(O)C3=CC(=O)[C@@H]4C[C@@H](O)[C@@H](O)C[C@]4(C)[C@H]3CC[C@]12C | < 4.48 | < 4.48 | ~5.30 |  |  |  |  | 
2 | CC(=O)OCC(=O)O[C@H](CCC(C)(C)O)[C@](C)(O)[C@H]1CC[C@@]2(O)C3=CC(=O)[C@@H]4C[C@@H](O)[C@@H](O)C[C@]4(C)[C@H]3CC[C@]12C [20-hydroxyecdysone 22-acetoxyacetate] | ~5.00 | < 4.48 | ~5.48 |  |  |  |  | 
3 | CC(C)(O)CC[C@@H](O)[C@](C)(O)[C@H]1CC[C@@]2(O)C3=CC(=O)[C@@H]4C[C@H]5OC(C)(C)O[C@H]5C[C@]4(C)[C@H]3CC[C@]12C [20-hydroxyecdysone-2,3-acetonide] | ~5.00 | < 4.48 | ~5.15 |  |  |  |  | 
4 | C[C@@H](CO)CC[C@@H](O)[C@](C)(O)[C@H]1CC[C@@]2(O)C3=CC(=O)[C@@H]4C[C@@H](O)[C@@H](O)C[C@]4(C)[C@H]3CC[C@]12C [(25R)-inokosterone] | ~5.00 |  | ~5.48 | < 4.48 |  |  |  | 
5 | C[C@H](CO)CC[C@@H](O)[C@](C)(O)[C@H]1CC[C@@]2(O)C3=CC(=O)[C@@H]4C[C@@H](O)[C@@H](O)C[C@]4(C)[C@H]3CC[C@]12C [(25S)-inokosterone] | ~5.00 |  | ~5.48 | < 4.48 |  |  |  | 
6 | CC(C(O)CCC(C)(C)O)C1CCC2(O)C3=CC(=O)C4CC(O)CCC4(C)C3CCC12C (centres unmarked) [Compound 2-deoxyecdysone] | < 4.48 |  | ~6.00 | < 4.48 |  |  |  | 
7 | CC(C)(O)CC[C@@H](O)[C@](C)(O)[C@H]1CC[C@@]2(O)C3=C[C@H](O)[C@@H]4C[C@@H](O)[C@@H](O)C[C@]4(C)[C@H]3CC[C@]12C [Compound 6a-hydroxy-20-hydroxyecdysone] | < 4.48 | < 4.48 | 5.00 |  |  |  |  | 
8 | CC(C)(O)CC[C@@H](O)[C@](C)(O)[C@H]1CC[C@@]2(O)C3=C[C@@H](O)[C@@H]4C[C@@H](O)[C@@H](O)C[C@]4(C)[C@H]3CC[C@]12C [Compound 6b-hydroxy-20-hydroxyecdysone] | ~4.92 | < 4.48 | ~5.48 |  |  |  |  | 
9 | CC(=O)O[C@H](CCC(C)(C)O)[C@](C)(O)[C@H]1CC[C@@]2(O)C3=CC(=O)[C@@H]4C[C@@H](O)[C@@H](O)C[C@]4(C)[C@H]3CC[C@]12C [Compound 20-hydroxyecdysone-22-acetate] | ~5.70 |  | ~5.70 | < 4.48 |  |  |  | 
10 | CC(C)(O)CCC(=O)[C@](C)(O)[C@H]1CC[C@@]2(O)C3=CC(=O)[C@@H]4C[C@@H](O)[C@@H](O)C[C@]4(C)[C@H]3CC[C@]12C [Compound 22-dehydro-20-hydroxyecdysone] | 4.99 | < 4.48 | ~5.15 |  |  |  |  | 
11 | CC(C)(O)CC[C@@H](O)[C@](C)(O)[C@H]1CC[C@@]2(O)C3=CC(=O)[C@@H]4C[C@@H](O)[C@@H](O)C[C@]4(C)C3=CC[C@]12C [Compound 25-hydroxydacryhainansterone] | ~5.00 | < 4.48 | ~5.48 |  |  |  |  | 
12 | CC(C)CC[C@@H](O)[C@](C)(O)[C@H]1CC[C@@]2(O)C3=CC(=O)[C@@H]4C[C@@H](O)[C@@H](O)C[C@]4(C)[C@H]3[C@H](O)C[C@]12C [ajugasterone C] | ~5.15 |  | ~6.70 |  | ~5.00 |  |  | 
13 | CC(C)(O)C(CCC(C)(O)C1CCC2(O)C3=CC(=O)C4CC(O)C(O)CC4(C)C3CCC12C)OC(=O)c1ccc[nH]1 (centres unmarked) [canescensterone] | < 5.00 | < 5.00 | ~6.52 |  |  |  |  | 
14 | CC1(C)OC(=O)C=C1CC(O)C(C)(O)C1CCC2(O)C3=CC(=O)C4CC(O)C(O)CC4(C)C3CCC12C (centres unmarked) [carthamosterone] | < 4.48 |  | ~4.70 | < 4.48 |  |  |  | 
15 | C[C@@H]1C(=O)O[C@H](C)[C@H]1C[C@@H](O)[C@](C)(O)[C@H]1CC[C@@]2(O)C3=CC(=O)[C@@H]4C[C@@H](O)[C@@H](O)C[C@]4(C)[C@H]3CC[C@]12C [cyasterone] | 5.81 |  | ~6.52 |  |  |  |  | 
16 | C[C@H]([C@H](O)CCC(C)(C)O)[C@H]1CC[C@@]2(O)C3=CC(=O)[C@@H]4C[C@@H](O)[C@@H](O)C[C@]4(C)[C@H]3CC[C@]12C [ecdysone] | < 4.48 |  | ~5.15 |  | < 4.48 | < 4.48 | < 4.48 | < 4.48
17 | CC(C)(O)CC[C@@H](O)[C@](C)(O)[C@H]1CC[C@@]2(O)C3=CC(=O)[C@@H]4C[C@@H](O)[C@@H](O)[C@@H](O)[C@]4(C)[C@H]3CC[C@]12C [integristerone A] | ~4.92 |  | ~5.00 | < 4.48 |  |  |  | 
18 | CC(CC(O)C(C)(O)C1CCC2(O)C3=CC(=O)C4CC(O)C(O)CC4(C)C3CCC12C)C(C)(C)O (centres unmarked) [makisterone A] | ~5.00 |  | 5.86 | < 4.48 |  |  |  | 
19 | CCC(CC(O)C(C)(O)C1CCC2(O)C3=CC(=O)C4CC(O)C(O)CC4(C)C3CCC12C)C(C)(C)O (centres unmarked) [makisterone C] | ~5.40 |  | ~5.70 | < 4.48 |  |  |  | 
20 | CC(C)(O)CC[C@@H](O)[C@](C)(O)[C@H]1CC[C@@]2(O)C3=CC(=O)[C@]4(O)C[C@@H](O)[C@@H](O)C[C@]4(C)[C@H]3CC[C@]12C [polypodine B] | ~5.70 |  | ~5.48 |  | ~5.10 | 5.36 | ~5.05 | ~6.52
21 | CC(C)=CC[C@@H](O)[C@](C)(O)[C@H]1CC[C@@]2(O)C3=CC(=O)[C@@H]4C[C@@H](O)[C@@H](O)C[C@]4(C)[C@H]3CC[C@]12C [stachysterone C] | 6.17 |  | ~7.00 |  | ~5.30 |  |  | 
22 | CCCCCC(=O)OC1CC2(C)C(C(C)(O)C(O)CCC(C)(C)O)CCC2(O)C2=CC(=O)C3CC(O)C(O)CC3(C)C21 (centres unmarked) [turkesterone-11 a -hexanoate] | < 4.48 |  | ~5.00 |  | < 4.48 |  |  | 
23 | CCC(=O)OC1CC2(C)C(C(C)(O)C(O)CCC(C)(C)O)CCC2(O)C2=CC(=O)C3CC(O)C(O)CC3(C)C21 (centres unmarked) [turkesterone-11 a -propionate] | < 4.48 |  | ~5.00 |  | < 4.48 |  |  | 
24 | CCCCCCCCCC(=O)OC1CC2(C)C(C(C)(O)C(O)CCC(C)(C)O)CCC2(O)C2=CC(=O)C3CC(O)C(O)CC3(C)C21 (centres unmarked) [turkesterone-11a-decanoate] | < 4.48 |  | < 4.48 |  | < 4.48 |  |  | 
25 | CC(C)(O)CC[C@@H](O)[C@](C)(O)[C@H]1CC[C@@]2(O)C3=CC(=O)[C@@H]4C[C@@H](O)[C@@H](O)C[C@]4(C)[C@H]3[C@H](O)C[C@]12C [turkesterone] | ~4.92 |  | ~5.00 |  | < 4.48 |  |  | 
